Laboratory results reported in ChEMBL document CHEMBL2007661, “Compounds: GSK PKIS; Assays: UNC Frye lab” (2012).
Where “and” joins values, the source holds several entries; their conditions need not be identical. Equal values may be shown once.

Columns and labels:
[1] = target: T1, Inhibitor of nuclear factor kappa-B kinase subunit epsilon (Homo sapiens) (UniProt Q14164); details: at 1 µM
T1 sequence (whole entry): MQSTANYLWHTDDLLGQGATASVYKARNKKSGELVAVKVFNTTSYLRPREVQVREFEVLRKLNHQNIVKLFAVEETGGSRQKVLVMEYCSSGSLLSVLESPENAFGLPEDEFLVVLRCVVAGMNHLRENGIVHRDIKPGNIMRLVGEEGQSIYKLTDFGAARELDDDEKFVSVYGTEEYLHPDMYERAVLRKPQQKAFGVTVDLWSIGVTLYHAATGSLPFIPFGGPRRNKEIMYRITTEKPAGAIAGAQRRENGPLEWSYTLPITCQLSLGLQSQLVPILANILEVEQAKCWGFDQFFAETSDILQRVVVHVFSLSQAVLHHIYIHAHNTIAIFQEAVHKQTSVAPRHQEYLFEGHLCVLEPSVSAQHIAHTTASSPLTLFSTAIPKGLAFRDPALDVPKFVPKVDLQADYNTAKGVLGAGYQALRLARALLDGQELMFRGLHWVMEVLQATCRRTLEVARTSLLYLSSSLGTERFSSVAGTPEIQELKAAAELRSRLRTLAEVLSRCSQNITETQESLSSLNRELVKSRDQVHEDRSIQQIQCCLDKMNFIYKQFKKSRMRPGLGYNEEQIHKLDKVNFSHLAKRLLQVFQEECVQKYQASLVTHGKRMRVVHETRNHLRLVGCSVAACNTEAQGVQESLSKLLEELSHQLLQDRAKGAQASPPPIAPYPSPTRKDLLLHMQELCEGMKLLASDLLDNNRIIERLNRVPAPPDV

[2] = target: T2, Serine/threonine-protein kinase TBK1 (Homo sapiens) (UniProt Q9UHD2); details: at 1 µM
T2 sequence (whole entry): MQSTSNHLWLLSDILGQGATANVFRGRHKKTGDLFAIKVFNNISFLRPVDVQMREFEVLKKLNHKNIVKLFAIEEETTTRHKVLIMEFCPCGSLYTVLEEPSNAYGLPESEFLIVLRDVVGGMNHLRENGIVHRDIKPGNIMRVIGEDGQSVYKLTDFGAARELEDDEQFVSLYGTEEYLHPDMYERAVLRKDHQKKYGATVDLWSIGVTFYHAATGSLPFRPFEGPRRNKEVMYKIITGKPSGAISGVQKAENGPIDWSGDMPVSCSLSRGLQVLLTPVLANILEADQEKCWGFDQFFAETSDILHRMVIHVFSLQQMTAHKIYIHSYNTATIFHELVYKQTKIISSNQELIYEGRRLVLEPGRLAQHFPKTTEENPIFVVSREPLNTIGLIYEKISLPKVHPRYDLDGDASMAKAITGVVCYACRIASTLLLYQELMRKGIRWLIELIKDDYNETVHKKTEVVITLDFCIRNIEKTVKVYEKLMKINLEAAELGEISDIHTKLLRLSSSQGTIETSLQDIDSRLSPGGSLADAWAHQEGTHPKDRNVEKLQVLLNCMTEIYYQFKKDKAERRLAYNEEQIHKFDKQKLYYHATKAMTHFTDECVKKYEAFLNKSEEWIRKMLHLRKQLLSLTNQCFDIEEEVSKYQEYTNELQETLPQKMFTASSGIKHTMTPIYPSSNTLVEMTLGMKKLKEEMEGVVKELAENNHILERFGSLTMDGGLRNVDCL

Structure (SMILES) | inhibition [1] | inhibition [2]
O=C(Nc1n[nH]c2nnc(-c3cccnc3)cc12)C1CC1 | -1% and 1% | 5% and 3%
CCn1c(-c2nonc2N)nc2c(C#CC(C)(C)O)nc(OCCNC)cc21 | 44% and 46% | 23% and 19%
c1ccc(-c2nc3n(c2-c2ccc4c(c2)OCO4)CCC3)nc1 | 1% and 2% | 5%
COc1cc(C)c(NC(=O)CN(C)C)cc1Nc1nc(Nc2cccc(F)c2C(N)=O)c2cc[nH]c2n1 | 9% and 8% | 30% and 32%
COc1cc2ncn(-c3cc(OCc4ccccc4C(F)(F)F)c(C(=O)N(C)C)s3)c2cc1OC | -1% | -1% and 0%
COC(=O)c1ccc2c(c1)C(=Cc1cc(Br)c(O)c(Br)c1)C(=O)N2 | 51% and 52% | 36%
CN1CCC(C(=O)Nc2n[nH]c3nnc(-c4ccccc4)cc23)CC1 | -3% | -3% and -7%
Nc1nc(-c2ccccn2)c(-c2ccc3ncccc3n2)s1 | 0% and -2% | 3% and 0%
CN(c1ccc(NC(=O)NCCN2CCOCC2)cc1)c1ccnc(Nc2ccc(CS(C)(=O)=O)cc2)n1 | 2% and 5% | 3% and 2%
COc1cc(Nc2ncc3c(C)nc(-c4cccc(C(F)(F)F)c4)n3n2)cc(OC)c1OC | 29% and 33% | 53% and 45%
NCc1ccc(-n2c(-c3nonc3N)nc3cnccc32)cc1 | 2% | 6% and 5%
CNC(=O)c1cncc(/C=C/c2ccccc2C)c1 | 3% and 1% | 2% and 5%
CCCN1CCC(c2ccc(Nc3nc(Nc4cc(F)ccc4C(N)=O)c4cc[nH]c4n3)c(OC)c2)CC1 | 8% and 6% | 13% and 7%
c1ccc(Nc2ncc(-c3ccccc3)o2)cc1 | 0% and -1% | 2% and 1%
CNC(=O)c1ncccc1Nc1nc(Nc2cc3c(cc2OC)CCCN3C(=O)CN(C)C)nc2[nH]ccc12 | 0% and 5% | 8% and 12%
COc1cccc(-n2ncc3c(N/N=C/c4cccc(F)c4)ncnc32)c1 | -1% and 0% | 6% and 5%
Cc1nc(-c2ccccc2)n2nc(NCCCN3CCOCC3)ncc12 | 3% and 4% | 5% and 8%

Structure (SMILES) | inhibition [1] | inhibition [2]
CCc1ccc(Oc2nccc(-c3c(-c4ccc(F)cc4)ncn3C3CCNCC3)n2)cc1 | -3% and -4% | -6% and -3%
COc1cc2c(cc1Nc1nc(N3CCc4ccccc43)c3cc[nH]c3n1)N(C(=O)CN(C)C)CC2 | 21% and 19% | 24% and 28%
CCn1c(-c2nonc2N)nc2ccncc21 | -2% and -1% | -4% and -5%
COc1ccc2[nH]c3c4[nH]c5ccc(OC)cc5c4c4c(c3c2c1)C(=O)NC4=O | 21% and 20% | 55% and 56%
O=S(=O)(CCNCc1ccc(-c2ccc3ncnc(Nc4ccc(OCc5cccc(F)c5)c(Cl)c4)c3c2)o1)c1ccccc1 | -2% and -1% | 12% and 18%
COc1cc(Nc2ncc(-c3ccccc3)o2)cc(OC)c1OC | 17% and 13% | 35% and 27%
COc1cc(C)c(N(C)C(=O)CN(C)C)cc1Nc1nc(Nc2cccc(F)c2C(N)=O)c2cc[nH]c2n1 | -3% and -2% | -4% and -3%
CN1CCC(n2cnc(-c3ccc(F)cc3)c2-c2ccnc(Nc3ccccc3)n2)CC1 | 0% and -2% | 0% and -2%
O=C1NC(=O)C(N2CCc3ccccc32)=C1c1ccc(Cl)cc1 | 1% | 1%
COc1cccc(-n2cnc3c(N/N=C/c4ccncc4)ncnc32)c1 | 1% and 0% | 4% and -1%
COc1ccc(C2=C(N3CCc4ccccc43)C(=O)NC2=O)cc1 | -1% and 0% | 0% and 3%
CC1(C)CC(n2cnc(-c3ccc(F)cc3)c2-c2ccnc(N)n2)CC(C)(C)N1 | -1% and 4% | -5% and -3%
COc1cc(/C=N/Nc2ncnc3c2cnn3C(C)C)ccc1O | 0% and -3% | 9% and 8%
CN(C)CCCNc1nccc(-c2c(-c3ccc(F)cc3)nn3cc(C(F)(F)F)ccc23)n1 | -1% and 0% | -1% and 2%
NS(=O)(=O)c1ccc(Nc2ncc(-c3ccccc3)o2)cc1 | 2% and 3% | 10% and 5%
COc1cccc(-n2ncc3c(N/N=C/c4ccc(F)cc4)ncnc32)c1 | 1% and 0% | 5% and 11%
C[C@@H](Oc1cc(-n2cnc3ccc(OCC4CCN(C)CC4)cc32)sc1C(N)=O)c1ccccc1C(F)(F)F | 2% and 4% | 11% and 4%

Other lines, results leading:

inhibition [1] | inhibition [2] | Structure (SMILES)
-1% and 0% | -1% and -3% | Cc1ccc2c(-c3ccnc(Nc4ccccc4)n3)c(-c3ccc(F)cc3)nn2n1
65% | 59% and 60% | NS(=O)(=O)c1ccc(N/N=C2\C(=O)Nc3ccc(C(=O)NCc4ccncc4)cc32)cc1
-4% | -10% and -6% | Cc1cccc(-c2n[nH]cc2-c2ccc3ncccc3n2)n1
1% and 0% | 0% and 2% | O=C(Nc1ccc(Oc2ccc3[nH]c(NC(=O)c4ccco4)nc3c2)cc1)Nc1cc(C(F)(F)F)ccc1F
-2% and -1% | -2% and -4% | CS(=O)(=O)Nc1ccc(-c2cc(-c3ccccc3)cc(C(N)=O)c2N)cc1
0% and 1% | 3% and 2% | CC1=C(C(=O)Nc2ccc3[nH]ncc3c2)C(c2ccc(Cl)c(Cl)c2)CC(=O)N1 (stereo not given)
2% | 1% and 5% | Cc1nn(C)c2cc(N(C)c3ccnc(Nc4cccc(S(N)(=O)=O)c4)n3)ccc12
-5% and 0% | 2% and 1% | O=C(NCC1CC1)c1ccc(-c2cccc(C(=O)NC3CC3)c2)cc1
-2% and -1% | -2% | Cc1nnc(-c2ccc(C)c(-c3ccc(C(=O)Nc4cccc(C#N)c4)cc3)c2)o1
-1% and -3% | 0% and 5% | NC(=O)c1ccc(-c2nc(-c3ccccn3)c(-c3ccc4c(c3)OCO4)[nH]2)cc1
6% and 5% | 6% and 3% | O=C(Nc1ccc(Oc2ccc3[nH]c(NC(=O)c4ccccc4)nc3c2)cc1)Nc1cc(C(F)(F)F)ccc1F
19% and 16% | 0% and -1% | Nc1ncnc2occ(-c3ccc(NC(=O)Nc4cccc(C(F)(F)F)c4)cc3)c12
0% | 3% and 5% | CS(=O)(=O)Nc1cccc(-c2ccc3c(NC(=O)C4CC4)n[nH]c3c2)c1
94% | 93% and 98% | CC(C)COC(=O)c1ccc2c(c1)/C(=C/Nc1ccc(S(N)(=O)=O)cc1)C(=O)N2
1% and -3% | -2% and 0% | CS(=O)(=O)CCNCc1ccc(-c2ccc3ncnc(Nc4ccc(OCc5ccccc5)c(Cl)c4)c3c2)o1
-2% and -1% | -3% and -1% | CS(=O)(=O)CCNCc1ccc(-c2ccc3ncnc(Nc4ccc(OCc5ccccc5)c(C(F)(F)F)c4)c3c2)o1
1% and 3% | 7% and 10% | CCCN(CCS(C)(=O)=O)Cc1ccc(-c2ccc3ncnc(Nc4ccc(OCc5cccc(F)c5)c(Cl)c4)c3c2)o1
-4% and 2% | -4% and -8% | Fc1ccc(-c2nn3ccccc3c2-c2ccncc2)cc1
0% and -2% | -5% and -2% | COC(=O)Nc1nc2cc(Oc3ccc(NC(=O)Nc4cccc(C(=O)O)c4)cc3)ccc2[nH]1
-1% and -2% | 0% | COC(=O)Nc1nc2ccc(S(=O)(=O)c3ccc(NC(=O)Nc4cc(C(F)(F)F)ccc4F)cc3)cc2[nH]1
1% and 2% | -2% and -4% | O=C1NC(=O)C(c2ccc(Cl)cc2)=C1Nc1ccc(Cl)c(C(=O)O)c1
4% and 3% | 16% and 17% | NS(=O)(=O)c1ccc(Nc2cc(-c3ccc(O)c(F)c3)n[nH]2)cc1
-2% | -6% and -5% | OCc1ccc(-c2nc(-c3ccccn3)c(-c3ccc4c(c3)OCO4)[nH]2)cc1
18% and 3% | 4% and 2% | COc1cccc(-n2nc(C)c3c(N/N=C(\C)c4ccncc4)ncnc32)c1
-4% and 0% | -6% and -7% | Fc1cccc(COc2ccc(Nc3ncncc3C#Cc3ccccc3)cc2Cl)c1
-1% and -2% | -2% | COC(=O)Nc1nc2cc(Oc3cccc(NC(=O)Nc4cc(C(F)(F)F)ccc4F)c3)ccc2[nH]1
